Results reported in paper PMC6235261, “Deuterium isotope effects in drug pharmacokinetics II: Substrate-dependence of the reaction mechanism influences outcome for cytochrome P450 cleared drugs” (PLoS ONE, 2018).

Experiments:
[1] = molecular target: T1, CYP1A2 (Homo sapiens, UniProt P05177); assay: Substrate depletion with recombinant CYP1A2; type: in vitro ADME; conditions: for kobs: recombinant CYP1A2, substrate depletion at 1.0 μM, 10 pmol/mL rCYP, 37 °C
T1 construct: host or cells: insect cells (membranes)
T1 sequence (P05177 2-516 limits assumed): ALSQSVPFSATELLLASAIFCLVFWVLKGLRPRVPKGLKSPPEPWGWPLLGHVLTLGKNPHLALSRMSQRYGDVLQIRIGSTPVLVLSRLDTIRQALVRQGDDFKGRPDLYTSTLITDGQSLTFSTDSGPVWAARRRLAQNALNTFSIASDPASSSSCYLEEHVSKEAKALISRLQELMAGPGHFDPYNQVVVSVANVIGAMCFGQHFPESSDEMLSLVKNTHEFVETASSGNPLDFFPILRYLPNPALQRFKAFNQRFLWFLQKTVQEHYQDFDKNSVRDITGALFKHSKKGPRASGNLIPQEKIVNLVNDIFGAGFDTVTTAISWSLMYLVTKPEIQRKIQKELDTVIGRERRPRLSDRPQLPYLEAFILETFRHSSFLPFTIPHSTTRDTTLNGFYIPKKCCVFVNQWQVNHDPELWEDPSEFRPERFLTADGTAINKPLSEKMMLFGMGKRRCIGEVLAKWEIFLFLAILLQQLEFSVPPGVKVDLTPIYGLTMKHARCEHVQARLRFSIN
Experimental: (§1) Relative CYP activities were determined from the ratio of the depletion rate constant for each isoform relative to that for CYP3A4. […] Eight 100 μL aliquots each were removed over a period of 70 to 90 minutes and added to 100 μL of a 0.1 μM solution of an internal standard in methanol to quench the enzymatic reaction. The samples were filtered through a high protein-binding capacity filter membrane in a 96-well format. The filtrates were evaporated in a vacuum centrifuge to near dryness, diluted with 125 μL of water, and a 99 μL aliquot was analyzed by reversed phase chromatography/mass spectrometry using selected reaction monitoring. Rate constants were determined from the semi-logarithmic plots of the time versus ratio of the area under the peak for specific transitions of the various substrates and the internal standard. The intrinsic clearance isotope effect was determined from the ratio of the rate constants for the protio- and respective deuterio- forms.

[2] = molecular target: T2, CYP2C9 (Homo sapiens, UniProt P11712); assay: Substrate depletion with recombinant CYP2C9; type: in vitro ADME
T2 construct: host or cells: insect cells (membranes)
Experimental: as §1

[3] = molecular target: T3, CYP2C19 (Homo sapiens, UniProt P33261); assay: Substrate depletion with recombinant CYP2C19; type: in vitro ADME; conditions: for kobs: recombinant CYP2C19, substrate depletion at 1.0 μM, 10 pmol/mL rCYP, 37 °C
T3 construct: host or cells: insect cells (membranes)
Experimental: as §1

[4] = molecular target: T4, CYP2D6 (Homo sapiens, UniProt P10635); assay: Substrate depletion with recombinant CYP2D6; type: in vitro ADME
T4 construct: host or cells: insect cells (membranes)
Experimental: as §1

[5] = molecular target: T5, CYP2C8 (Homo sapiens, UniProt P10632); assay: Substrate depletion with recombinant CYP2C8; type: in vitro ADME; conditions: for As % of CYP3A4: recombinant CYP2C8, depletion rate constant relative to CYP3A4
T5 construct: host or cells: insect cells (membranes)
T5 sequence (P10632 1-490): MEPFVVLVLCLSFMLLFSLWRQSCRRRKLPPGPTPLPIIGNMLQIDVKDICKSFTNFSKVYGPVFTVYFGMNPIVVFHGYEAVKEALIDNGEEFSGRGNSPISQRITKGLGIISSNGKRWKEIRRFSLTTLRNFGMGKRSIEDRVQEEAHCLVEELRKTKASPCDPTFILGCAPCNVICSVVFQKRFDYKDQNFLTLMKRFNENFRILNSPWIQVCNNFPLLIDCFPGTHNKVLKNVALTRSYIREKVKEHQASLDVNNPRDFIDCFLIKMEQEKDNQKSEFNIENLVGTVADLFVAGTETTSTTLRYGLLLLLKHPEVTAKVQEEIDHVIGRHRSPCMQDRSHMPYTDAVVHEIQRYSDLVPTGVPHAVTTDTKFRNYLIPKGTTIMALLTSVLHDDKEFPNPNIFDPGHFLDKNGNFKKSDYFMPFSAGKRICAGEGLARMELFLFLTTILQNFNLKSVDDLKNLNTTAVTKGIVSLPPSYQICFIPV
Experimental: as §1

[6] = Estimation of Km by the substrate depletion method; type: in vitro ADME; conditions: human, pH 7.4
Experimental: as §1

[7] = molecular target: T6, CYP3A4 (Homo sapiens, UniProt P08684); type: in vitro ADME; conditions: 1 μM, pH 7.4
T6 construct: host or cells: insect cells (membranes)
Experimental: as §1

T3 sequence (P33261 whole entry): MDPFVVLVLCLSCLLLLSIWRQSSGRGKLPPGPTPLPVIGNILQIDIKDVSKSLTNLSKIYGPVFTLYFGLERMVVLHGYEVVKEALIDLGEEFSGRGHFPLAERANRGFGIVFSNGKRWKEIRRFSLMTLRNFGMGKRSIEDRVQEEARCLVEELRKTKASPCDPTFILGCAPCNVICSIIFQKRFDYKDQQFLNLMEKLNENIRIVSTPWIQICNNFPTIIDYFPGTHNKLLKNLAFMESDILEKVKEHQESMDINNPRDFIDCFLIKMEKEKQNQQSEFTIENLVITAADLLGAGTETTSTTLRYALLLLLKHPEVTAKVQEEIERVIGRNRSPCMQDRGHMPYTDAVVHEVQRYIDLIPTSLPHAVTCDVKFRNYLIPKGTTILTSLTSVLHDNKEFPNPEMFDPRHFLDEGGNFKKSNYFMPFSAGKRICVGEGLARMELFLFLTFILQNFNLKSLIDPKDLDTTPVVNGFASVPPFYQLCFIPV
T4 sequence (P10635 whole entry): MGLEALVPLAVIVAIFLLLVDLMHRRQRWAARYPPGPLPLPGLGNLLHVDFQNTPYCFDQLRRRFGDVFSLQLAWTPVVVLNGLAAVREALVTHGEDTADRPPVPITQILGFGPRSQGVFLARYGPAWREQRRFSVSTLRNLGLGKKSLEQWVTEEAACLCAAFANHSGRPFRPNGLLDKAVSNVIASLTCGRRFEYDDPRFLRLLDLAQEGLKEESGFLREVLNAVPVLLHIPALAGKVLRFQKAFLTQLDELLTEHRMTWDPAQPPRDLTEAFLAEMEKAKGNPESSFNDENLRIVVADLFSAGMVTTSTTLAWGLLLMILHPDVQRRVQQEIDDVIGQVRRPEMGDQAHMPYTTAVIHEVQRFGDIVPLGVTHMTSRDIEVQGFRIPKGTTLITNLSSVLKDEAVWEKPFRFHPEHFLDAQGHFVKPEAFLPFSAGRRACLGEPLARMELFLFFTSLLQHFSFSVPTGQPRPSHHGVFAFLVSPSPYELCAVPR
T2 sequence (P11712 whole entry): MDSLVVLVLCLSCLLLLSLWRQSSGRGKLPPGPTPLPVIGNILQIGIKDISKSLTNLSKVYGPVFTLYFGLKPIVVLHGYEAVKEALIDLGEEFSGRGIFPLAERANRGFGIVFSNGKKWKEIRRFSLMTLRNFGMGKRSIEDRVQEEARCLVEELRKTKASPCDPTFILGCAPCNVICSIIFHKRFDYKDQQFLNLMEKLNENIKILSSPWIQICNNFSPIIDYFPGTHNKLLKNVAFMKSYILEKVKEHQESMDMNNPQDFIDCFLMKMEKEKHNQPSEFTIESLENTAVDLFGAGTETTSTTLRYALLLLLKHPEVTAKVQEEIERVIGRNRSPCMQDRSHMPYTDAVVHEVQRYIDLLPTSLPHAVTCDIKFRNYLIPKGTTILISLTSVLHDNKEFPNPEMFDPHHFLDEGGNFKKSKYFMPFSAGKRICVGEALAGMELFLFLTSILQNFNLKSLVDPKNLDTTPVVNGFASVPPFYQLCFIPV
T6 sequence (P08684 2-503 limits assumed): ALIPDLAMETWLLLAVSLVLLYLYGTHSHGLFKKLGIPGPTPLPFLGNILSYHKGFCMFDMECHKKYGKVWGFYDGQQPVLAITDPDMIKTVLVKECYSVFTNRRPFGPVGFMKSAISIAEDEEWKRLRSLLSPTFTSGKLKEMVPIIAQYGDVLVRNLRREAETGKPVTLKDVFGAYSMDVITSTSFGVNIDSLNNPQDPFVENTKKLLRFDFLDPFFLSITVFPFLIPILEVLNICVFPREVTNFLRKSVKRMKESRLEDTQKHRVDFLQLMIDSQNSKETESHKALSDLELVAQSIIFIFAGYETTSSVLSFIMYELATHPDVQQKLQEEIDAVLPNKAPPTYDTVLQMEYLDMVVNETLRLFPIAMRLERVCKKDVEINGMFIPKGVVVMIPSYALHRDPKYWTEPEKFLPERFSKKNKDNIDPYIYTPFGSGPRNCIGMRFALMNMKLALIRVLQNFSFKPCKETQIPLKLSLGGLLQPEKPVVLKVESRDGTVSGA

| Structure (SMILES) | kobs [1] | kobs ([2]; recombinant CYP2C9, substrate depletion at 1.0 μM, 10 pmol/mL rCYP, 37 °C) | kobs [3] | kobs ([4]; recombinant CYP2D6, substrate depletion at 1.0 μM, 10 pmol/mL rCYP, 37 °C) | As % of CYP3A4 [5] | kobs ([5]; recombinant CYP2C8, substrate depletion at 1.0 μM, 10 pmol/mL rCYP, 37 °C) | Km [6] | melting point | kobs [7] | As % of CYP3A4 ([7]; recombinant enzyme) | As % of CYP3A4 ([1]; recombinant CYP1A2, depletion rate constant relative to CYP3A4) | As % of CYP3A4 ([2]; recombinant CYP2C9, depletion rate constant relative to CYP3A4) | As % of CYP3A4 ([3]; recombinant CYP2C19, depletion rate constant relative to CYP3A4) | As % of CYP3A4 ([4]; recombinant CYP2D6, depletion rate constant relative to CYP3A4) |
| --- | --- | --- | --- | --- | --- | --- | --- | --- | --- | --- | --- | --- | --- | --- |
| CCNc1nc2c(c(C(N)=O)n1)CN(C(=O)CCc1ccc(OC(F)(F)F)cc1)CC2 [Compound 1a] | 0.009 min⁻¹ | 0.050 min⁻¹ | 0.071 min⁻¹ | 0.015 min⁻¹ | 0% | 0.001 min⁻¹ | > 5 µM | 132 to 133 °C |  |  |  |  |  |  |
| COc1cccc(-n2nnc(C3CC3)c2C(=O)N(C)c2ccc(C#N)cc2)c1 [Compound 2a] | <0.001 min⁻¹ |  | 0.014 min⁻¹ |  | 0% |  | > 5 µM |  | 0.059 min⁻¹ | 100% | 0% | 0% | 24% | 0% |
